Earlier results on one compound are cited in US20110052690A1, “PROCESS FOR MANUFACTURE OF A MEDICAMENT WITH GRANULATION AND PAN COATING” (priority 2008, published 2011).

Structures are written as SMILES. Structures can show the parent of a compound that is named as a salt.

The conditions of the data set: plural daily dosing regime, compressed tablets.

As for `COc1ccc(C(CN(C)C)C2(O)CCCCC2)cc1` (centres unmarked) [venlafaxine hydrochloride, 1-[(2-dimethylamino)-1-(4-methoxyphenyl)ethyl] cyclohexanol], the patients experiencing nausea entry is reported as “about forty five” and the “patients in whom vomiting occurs” value was “about seventeen”.
